# Source: article PMC3668706, “Highly Divergent T-cell Receptor Binding Modes Underlie Specific Recognition of a Bulged Viral Peptide bound to a Human Leukocyte Antigen Class I Molecule” (The Journal of Biological Chemistry, 2013)
# Tests used:
# [1] = tested on: CA5 CTL clone; conditions: IFNγ intracellular staining, peptide-pulsed T2 cells, 4 h; performed twice
# Method: CTL clones were tested against a range of antigen-presenting cells and assayed for intracellular expression of IFN-γ by flow cytometry using the BD Cytofix/Cytoperm kit (BD Biosciences) according to standard protocols. Briefly, clones were incubated with antigen-presenting cells at a stimulator to responder ratio of 1:2 for 4 h in the presence of brefeldin A (BioLegend). For peptide titration experiments, T2 cells were incubated with various concentrations of LPEP peptide for 1 h and then washed thoroughly prior to incubation with CTL clones. After stimulation, cells were stained with Live/Dead Fixable Aqua Dead Cell Stain (Invitrogen) and anti-CD8-Cy5.5-PerCP mAb (BioLegend) for 30 min at 4 °C. Cells were then washed, fixed, permeabilized, and labeled with anti-IFN-γ-antigen-presenting cell mAb (BioLegend) for 30 min at 4 °C. After a further wash, samples were collected using a FACSCanto II flow cytometer (BD Biosciences). Data were analyzed with FlowJo software (Tree Star). Lymphocytes were identified based on light scatter, then live CD8^+ T-cells were selected and IFN-γ^+ gates were drawn based on unstimulated controls.
# [2] = tested on: SB47 CTL clone; experiment: Intracellular IFN-γ staining, SB47 CTL clone with LPEP-pulsed T2 cells; assay type: cell-based, human; conditions: IFNγ intracellular staining, peptide-pulsed T2 cells, 4 h; performed twice
# Method: Data were analyzed with FlowJo software (Tree Star).
sequence,measurement,setting,value
"LPEPLPQGQLTAY [LPEP peptide, 13-amino acid determinant from Epstein-Barr virus lytic Ag BZLF1, restricted by HLA-B*35:08]",recognition of LPEP presented by HLA-B*35:08 versus HLA-B*35:01 by CA5 CTL clone,[1],preferentially recognized HLA-B*35:08^LPEP when the peptide was limited
same,recognition of LPEP presented by HLA-B*35:08 versus HLA-B*35:01 by SB47 CTL clone,[2],equally well
